Test [1] has as its system SK7 mouse ES cells. Briefly: Screening for β cell differentiation enhancer using SK7 mouse ES cells (Pdx1-GFP). The format is cell-based. The note with it: LY411575 alone. On the procedure: The SK7 mouse ES cells were differentiated into β cells basically according to the previous report (Nakashima et al., 2015). Briefly, the cells were seeded at 5,000 cells per well in CellBIND 384-well (CORNING, 3770) cell culture plate or at 20,000 cells per well in a 96-well plate (Sigma) coated with 0.2% gelatin. Then, the cells were cultured in medium 1 from days 1 to 5. Medium 1 consisted of DMEM (high glucose) (Life Technologies, 11965092) supplemented with 0.1 mM NEAA (Gibco, 11140-50), 2 mM L-glutamine (Nacalai, 16948-04), 100 U/mL penicillin-streptomycin (Nacalai, 26252-94), 0.01 mM β-mercaptoethanol (Sigma), 1% insulin-transferrin-selenium supplement (ITS: Life Technologies, 41400045), 0.25% Albumax (Thermo Fisher, 11020021), and 10 ng/mL recombinant human activin-A (R&D Systems, 338-AC). Subsequently, the cells were cultured for 1 day in medium 2 which consisted of medium 1 supplemented with 10 μM retinoic acid (Stemgent, 04-0021). On day 6, the medium was replaced with medium 3, and the culture was continued until day 12 in order to induce differentiation into β cells. Medium 3 consisted of DMEM (low glucose) (Life Technologies, 11885084) supplemented with 0.1 mM NEAA, 2 mM L-glutamine, 100 U/mL penicillin-streptomycin, 0.1 mM β-mercaptoethanol, 1% ITS, 0.25% Albumax, and 3 mM nicotinamide (Sigma-Aldrich, N0636-500G). A test compound was added on day 8, and the cells were fixed in 4% paraformaldehyde for analysis using a high-content imager.
A chemical library consisting of about 55,000 compounds was screened for a substance that induced β cell differentiation. […] Fluorescence images were quantified using Operetta high-content imaging system and Harmony image analysis software (PerkinElmer, Germany). The nuclei were identified by DAPI staining, and the positivity of antibody staining was determined from the fluorescence intensity of a cytoplasmic region surrounding the nucleus. The number of cells positive to both insulin and GFP was counted and normalized with the total number of DAPI-positive cells or a positive area. A median of quadruple data was calculated, and screening hits were defined as states in which the number of insulin- and GFP-positive cells was increased as compared with a DMSO control. […] The activity of the selected candidate compounds was further analyzed with Toe human iPS cell assay system in order to select a hit compound having effectiveness for both differentiation into mouse β cells and differentiation into human β cells. A compound was added as described above, and its effectiveness was evaluated from a mRNA expression level by q-PCR in triplet experiments. […]

Test [2] concerns Toe human iPS cells. Briefly: Differentiation of Toe human iPS cells into iPS-β cells, monolayer culture, protocol #1. Format: cell-based. As to conditions: treatment from later stage of stage 3 to initial stage of stage 5. On the procedure: The Toe human iPS cells were seeded in CellBIND 6-well (CORNING, CLS3335) cell culture plate coated with synthemax II, and differentiated into primitive gut tube cells by the previously described method (Shahjalal et al., 2014). The cells were dissociated with TrypLE Select (Thermo Fisher, 12563011) and cryopreserved in BanBanker (Nippon genetics) at a density of 1.0 to 2.0×10^7 cells/mL until use. One day before compound addition, the cells were thawed in a medium for stage 3 (DMEM (high glucose), 0.25 μM SANT1 (Wako, 197-16351), 0.1 μM LDN193189 (Stemgent, 04-0074), 10 μM SB431542, 2 μM retinoic acid, 1% B27-free serum supplement (Life Technologies, 17504044), and seeded at 150,000 cells per well in CellBIND 96-well (Corning, 3340) cell culture plated coated with synthemax II. The cells were cultured for 1 day in a medium for stage 3 containing a test compound or a negative control (0.01% DMSO). The cells were further cultured for 2 days and 1 day in media for stages 4 and 5, respectively, containing the test compound or the negative control. On the next day, the cells were fixed in 4% paraformaldehyde for analysis using a high-content imager.

Test [3] concerns RPChiPS771 iPSC. Put plainly: Differentiation of RPChiPS771 iPS cells, sphere culture, protocol #1. The format is cell-based, human. As to conditions: 0.25 μM, methionine depletion 5 hours. The protocol:
(§1) The RPChipS771 cells were maintained as described above, and differentiated according to protocol #1. Briefly, on day 0, the cells were dissociated with TrypLE Select, transferred at a concentration of 1×10^6 cells/mL in Essential 8 medium to a low-attachment 6-well plate (Greiner, 657185), and cultured on a rotary shaker (95 rpm). On day 1, the medium was replaced with methionine-depleted medium KA01 (Ajinomoto), and the cells were cultured for 5 hours. The medium was replaced with differentiation medium 1 (DMEM (high glucose), L-Gln, NEAA, 0.01 mM β-mercaptoethanol, 100 ng/mL activin A, B27 supplement, 3 μM CHIR99021), and the cells were cultured for 1 day (stage 1-1). Then, the medium was replaced with medium 1 free from CHIR99021, and the cells were cultured for 2 days (stage 1-2). […]

The test system of test [4] is Ff-I01s01. Briefly: Differentiation of Ff-I01s01 iPS cells, sphere culture, protocol #2. Format: cell-based, human. The protocol:
The FfI-01s01 cells were maintained as described above and then differentiated according to protocol #2. Briefly, the cells were dissociated with TrypLE Select, transferred at a concentration of 1×10^6 cells/mL in AK03N medium (Ajinomoto Co., Inc.) to a low-attachment 6-well plate, and cultured for 24 hours on a rotary shaker (95 rpm). Then, the medium was replaced with AK03N-based methionine-depleted medium KA01, and the cells were cultured for 5 hours. Then, the medium was replaced with M1-1 AKM medium, and the cells were cultured for 24 hours (stage 1-1). The cells were cultured for 2 days in M1-2 AKM medium (stage 1-2), subsequently cultured for 2 days in M2 AKM medium (stage 2-1), cultured for 2 days in S2 medium (stage 2-2), cultured for 2 days in S3 medium (stage 3), cultured for 5 days in S4 medium (stage 4), cultured for 4 days in S5-1 medium (stage 5-1), and cultured for 3 days in S5-2 medium (stage 5).
In the case of evaluating the effectiveness of a compound for a differentiation rate and a cell function, a test compound and a negative control ([…]), and immunostaining was carried out on days 14 (at the completion of stage 4) and 21 (at the completion of stage 5) in order to confirm an effect on positivity to insulin, NKX6.1, and PDX1. GSIS assay was carried out on day 21.
Immunocytochemistry was carried out according to a general protocol using the following antibodies: rabbit anti-MAFA (Abcam; ab26405; 1/100×), goat anti-PDX1 (R&D systems; AF2419; 1/100×), mouse anti-NKX6.1 (Developmental Studies Hybridoma Bank, University of Iowa; F64A6B4; 1/100×), guinea pig anti-INSULIN (Dako; IR002; 1/10×), mouse anti-INSULIN (Sigma-Aldrich; 12018; 1/1000×), rabbit anti-C-peptide (Cell Signaling; 4593; 1/100×), rabbit anti-GFP (MBL International Corp; 598; 1/1000×), and mouse anti-GLUCAGON (Sigma-Aldrich; G2654; 1/1000×). […]

In test [5] the test system is iPS-β cells (RpChiPSC771). Put plainly: GSIS function assay of iPS-β cells from sphere culture of RPChiPSC771, protocol #1. The format is cell-based, human. As to conditions: 1 μM, treatment between stages 3 and 4. On the procedure: as §1
Batch-mode GSIS assay was carried out as described below. […] The C-peptide concentration of a sample was measured using alphaLISA C-peptide kit (PerkinElmer, AL299F) or C-peptide ELISA and corrected with the DNA content of the cells used in the GSIS assay.

Test [6] concerns iPS-β cells. Put plainly: Response of iPS-β cells to insulin secretagogues (c-peptide secretion). The format is cell-based, human. As to conditions: glibenclamide, exendin 4, and KCl. The protocol: Batch-mode GSIS assay was carried out as described below. An aliquot of the obtained human iPS-β cells was washed with LG-KRBH as described above. Then, the cells were incubated for 30 minutes or 1 hour in LG-HKRB buffer and subsequently incubated for the same time thereas in HG-HKRB buffer. In some experiments, after washing of the cells, the cells were dispensed into some aliquots and incubated for 1 hour in HG-HKRB buffer containing 0.01% DMSO or several types of insulin secretagogues. The C-peptide concentration of a sample was measured using alphaLISA C-peptide kit (PerkinElmer, AL299F) or C-peptide ELISA and corrected with the DNA content of the cells used in the GSIS assay.

Consider two compounds from patent publication US20220339260A1, “METHOD FOR PRODUCING INSULIN-PRODUCING CELL USING DIHYDROINDOLIZINONE DERIVATIVES” (TOKYO INSTITUTE OF TECHNOLOGY, priority 2019, published 2022).

Regarding `C[C@H](NC(=O)[C@@H](O)c1cc(F)cc(F)c1)C(=O)N[C@@H]1C(=O)N(C)c2ccccc2-c2ccccc21` [LY411575, reference compound], the “number of Pdx1-GFP+Ins+ double-positive cells” value in test [1] is recorded as “increase”.

As for `O=C1CCC(C(=O)Nc2ncc(-c3ccc(OC(F)(F)F)cc3)s2)n2cccc21` (stereo not drawn) [Synthesis Example 9, 8-Oxo-N-[5-[4-(trifluoromethoxy)phenyl]thiazol-2-yl]-6,7-dihydro-5H-indolizine-5-carboxamide], the “differentiation into iPS-β cells (INS+ cells)” value in test [2] is given as “stronger efficacy than that of the original compound K-1”. Further, in test [3], the “differentiation into INSULIN+PDX1+ double-positive cells” value was “enhanced differentiation”. Moreover, the “differentiation depending on time window of addition” value in test [4] (added in a time window including stage 3) is “enhance differentiation most effectively”. The “differentiation into INSULIN+NKX6.1+, NKX6.1+PDX1+ double-positive and INSULIN+NKX6.1+PDX1+ triple-positive cells” value in test [4] (protocol #2, end of stage 4 and later) is on record as “enhanced differentiation”. The “production of NKX6.1+ and INSULIN+NKX6.1+ double-positive cells” value in test [4] (treatment particularly in stages 3 to 5) is on record as “promoted the production”. Further, in test [5], the “glucose stimulated insulin secretion (GSIS) activity of obtained iPS-β cells” value was “enhanced”; the “insulin secretion dynamics in step-wise time-course measurement” value was “rapid first-phase insulin secretion and long-lasting second-phase insulin secretion”. Moreover, the “c-peptide secretion by stimulation with insulin secretagogues” value in test [6] was “enhanced c-peptide secretion”.
